Measurements from US10023902B2, “Methods for detecting enzyme activity using fluorescence lifetime imaging” (Purdue Research Foundation, priority 2012, dated 2018).
Residues, ends and D or L forms follow the SMILES beside them. No end group written: not given here. *: point of attachment. X1 = C[N+]1=C(C=CC=CC=C2N(CCCCCC(=O)NCCN3C(=O)CC(*)C3=O)c3ccccc3C2(C)C)C(C)(C)c2ccccc21; Cy5 = Cy5 fluorophore label on the Cys side chain

Columns and labels:
MEFs = settings: FCS, Cy5 alone vs biosensor
Description: Sequestration of the biosensor in endosomes was tested by staining for an endosomal marker. […] Peptide degradation, a potential issue in some cell types, was also examined.

Abl kinase = test: Biosensor Cy5 fluorescence lifetime analysis in live MEFs (FLIM); assay type: cell-based, mouse; settings: control MEFs expressing Abl kinase, 50 nM, 24 h; non-parametric ANOVA, P<0.05
Description: With reference to FIG. 3, WT MEF cells (unless otherwise indicated) were cultured on cover slips and incubated with the biosensor peptide or a control (as indicated, 50 nM for each) for 24 h, then imaged using the FLIM system. Data were extracted from raw FLIM images and represented as lifetime maps of autofluorescence, Cy5 only, Abl-TAT in Abl (−/−) MEFs, Abl-TAT in WT MEFs, Abl-F-mutant, Abl-phospho. With reference to FIG. 3A, fluorophore lifetime per cell was averaged for at least 20 cells in 3-5 replicate experiments and plotted as a distribution of lifetimes observed in each condition. Error bars represent standard error of the mean for each lifetime value. […] Error bars represent SEM.
Cover slips were washed with PBS and imaged immediately.
Average lifetimes per cell for multiple cells were calculated and plotted to show the distribution of lifetimes observed for the biosensor and each control (FIG. 3G). The distributions were determined to be non-Gaussian, so non-parametric ANOVA with a Dunn's post-test was used to evaluate statistical significance (P<0.05) for differences in the mean lifetimes. […] These experiments confirmed that the increase in Cy5 lifetime was specific and due to Abl-dependent phosphorylation of the biosensor peptide on tyrosine. […]

Syk kinase = test: FLIM detection of Syk kinase activity with SAStide-TAT biosensor in MCF7 breast cancer cells; assay type: cell-based

CC[C@H](C)[C@H](NC(=O)[C@H](C)NC(=O)[C@H](CCC(=O)O)NC(=O)CNC(=O)CN)C(=O)N[C@@H](Cc1ccc(O)cc1)C(=O)N[C@@H](C)C(=O)N[C@@H](C)C(=O)N1CCC[C@H]1C(=O)N[C@@H](CSC1CC(=O)N(CCNC(=O)CCCCCN2C(=CC=CC=CC3=[N+](C)c4ccccc4C3(C)C)C(C)(C)c3ccccc32)C1=O)C(=O)NCC(=O)NCC(=O)N[C@@H](CCCNC(=N)N)C(=O)N[C@@H](CCCCN)C(=O)N[C@@H](CCCCN)C(=O)N[C@@H](CCCNC(=N)N)C(=O)N[C@@H](CCCNC(=N)N)C(=O)N[C@@H](CCC(N)=O)C(=O)N[C@@H](CCCNC(=N)N)C(=O)N[C@@H](CCCNC(=N)N)C(=O)N[C@@H](CCCNC(=N)N)C(=O)N1CCC[C@H]1C(=O)N[C@@H](CCC(N)=O)C(=O)O (some centres unmarked) [Abl-TAT] (H-GGEAIYAAPC(X1)GGRKKRRQRRRPQ-OH)
peptide degradation to free Cy5 (MEFs): not degraded to free Cy5

Abl-F-mutant: analog having a phenylalanine substitution for the tyrosine residue of the Abltide-TAT biosensor, SEQ ID NO:3 (EAIYAAP)
mean Cy5 fluorescence lifetime per cell (Abl kinase): significantly lower mean lifetimes than both Abl-TAT in MEFs expressing Abl kinase and Abl-phospho

DEEDYEEPDEPGGCCy5GGRKKRRQRRRPQ (DEEDYEEPDEPGGC(Cy5)GGRKKRRQRRRPQ) [SAStide-TAT, Cy5-labeled Syk substrate peptide]
Cy5 lifetime shift of biosensor (Syk kinase; active Syk-expressing cells, pervanadate (Syk activation conditions), co-localizes with decreased EGFP lifetime): increased Cy5 lifetime

CCN1/C(=C/C=C/C=C/C2=[N+](CCCCCC(=O)O)c3ccc(S(=O)(=O)O)cc3C2(C)C)C(C)(C)c2cc(S(=O)(=O)[O-])ccc21 [Cy5, reference compound]
mean Cy5 fluorescence lifetime per cell (Abl kinase): significantly lower mean lifetimes than both Abl-TAT in MEFs expressing Abl kinase and Abl-phospho

COc1cc(Nc2ncc(F)c(Nc3ccc4c(n3)N(COP(=O)(O)O)C(=O)C(C)(C)O4)n2)cc(OC)c1OC [fostamatinib, reference compound]
regions of increased Cy5 lifetime after inhibitor pre-treatment (Syk kinase; Syk +/+ cells pre-treated with SAStide-TAT-Cy5 biosensor and inhibitor, 1 hour): no regions of increased lifetime were observed
